Source: patent EP2703003A1, “A pomegranate extract and compositions containing pomegranate polyphenols for treating or preventing diseases or physiopathological conditions associated with an excessive gene expression and/or physiological activity of interleukin-6” (Probelte Biotecnologia S.L., priority 2012, dated 2014)
Where two headings read alike, the source gives them in different places.

How the values were obtained:
[1] = test system: dermal papilla hair follicle cells; settings: 24 hours, 270 picog/mL at dose 0
Method: In another independent study, in vitro cultures of dermal papilla hair follicle cells grown using DMEM as a culture medium were seeded at a density of 1.5 x 10^5 cells per 50 mm of plate surface and incubated overnight. Then 3 consecutive washes with PBS were performed and DMEM culture medium supplemented with variables amounts of DHT was added to each of the cultures; specifically three doses were tested: 0, 25 and 100 nanoM. The culture medium was sampled after 24 hours to measure the concentration of interleukin-6 by means of ELISA.

[2] = side effect, background statement; cited from earlier work

Row | SMILES | mean concentration of interleukin-6 in the culture media ([1]; 25 nanoM) | mean concentration of interleukin-6 in the culture media ([1]; 100 nanoM) | itchy scalp [2]
1 | C[C@]12CCC(=O)C[C@@H]1CC[C@@H]1[C@@H]2CC[C@]2(C)[C@@H](O)CC[C@@H]12 [DHT, 5-dihydrotestosterone] | 1270 picog/mL | 2190 picog/mL | –
2 | Nc1cc(N2CCCCC2)nc(N)[n+]1[O-] [Minoxidil] | – | – | 1.5 % of patients
